Earlier results as cited in patent US20260234616A1, “CELL-PENETRATING PEPTIDES, CONJUGATES THEREOF, AND METHODS OF THEIR USE” (PepGen Inc., priority 2022, published 2026).

System: dystrophin
Conditions: DMD patients; reported by the sponsor

Substance: eteplirsen
- levels of dystrophin restoration in patients: approximately 1 % of normal
